# In publication PMC7377239, “Cardiovascular Effects of Polychlorinated Biphenyls and Their Major Metabolites” (Environmental Health Perspectives, 2020):
# Where two headings read alike, the source gives them in different places.
# What was measured:
# [1] = system: iCell endothelial cells (human iPSC-derived ECs); assay: Tube formation (tubulogenesis) assay in iCell endothelial cells, 18 h; format: cell-based; conditions: Homo sapiens, Endothelial cell, iPSC-EC tube formation, 18 hr; for activity at 0.1 µM: 0.10 µM; for minimal effective concentration: top concentration 100.00 µM
# Summary of the method: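 iCell ECs (passages 1–5) seeded 7,500 cells/well on reduced-growth-factor Geltrex in starvation medium, exposed overnight at 37°C to compounds in triplicate concentration–response (0.5% DMSO vehicle). Calcein AM staining, 4× imaging, angiogenesis image analysis; readouts normalized to vehicle, four-parameter logistic fit, POD at 1 SD of vehicle; 100 μM assigned NOAEL if no response.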
# HUVECs = assay: High-content imaging cytotoxicity in HUVECs, 24 h; format: cell-based, human; conditions: Homo sapiens, HUVEC, 24 h, HUVECs; for viability at 0.01 µM / activity at 0.01 µM / viability at 0.1 µM / activity at 0.1 µM / viability at 1 µM / activity at 1 µM / viability at 10 µM / activity at 10 µM / viability at 100 µM / activity at 100 µM: 0.00 µM = 100.00; for viability at 0.1 µM / activity at 0.1 µM: 0.10 µM; for minimal effective concentration: top concentration 100.00 µM
# Summary of the method: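 HUVECs (passages 1–5) were plated at 750 cells/well without fibronectin, grown to a monolayer (3–5 d) and exposed to compounds for 24 h at 37°C, 5% CO2. Hoechst 33342, MitoTracker Orange and calcein AM staining was imaged at 10×; readouts were normalized to 0.5% DMSO vehicle and fit to a four-parameter logistic model.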
# [2] = 0.00 µM control = 100.00, read-out: endo.mtl.18hr
# [3] = 0.00 µM control = 100.00, read-out: endo.tlps.18hr
# [4] = 0.00 µM control = 100.00, read-out: endo.tta.18hr
# [5] = 0.00 µM control = 100.00, read-out: endo.ttl.18hr
# [6] = 24 hr, read-out: huvec.cyto.24hr
# [7] = 24 hr, read-out: huvec.mito.24hr
# [8] = 24 hr, read-out: huvec.mitoint.24hr
# [9] = 24 hr, read-out: huvec.nma.24hr
# [10] = 24 hrs, read-out: huvec.tc.24hrs
smiles,measurement,setting,value
Oc1ccc(-c2cccc(Cl)c2)cc1Cl [4-OH PCB11],activity at 0.01 µM,[1]; [2],108%
same,activity at 0.01 µM,[1]; [3],105%
same,activity at 0.01 µM,[1]; [4],164%
same,activity at 0.01 µM,[1]; [5],164%
same,activity at 0.1 µM,[1]; [2],111%
same,activity at 0.1 µM,[1]; [3],99.3%
same,activity at 0.1 µM,[1]; [4],131%
same,activity at 0.1 µM,[1]; [5],135%
same,activity at 1 µM,[1]; [2],106%
same,activity at 1 µM,[1]; [3],114%
same,activity at 1 µM,[1]; [4],144%
same,activity at 1 µM,[1]; [5],144%
same,activity at 10 µM,[1]; [2],95.5%
same,activity at 10 µM,[1]; [3],119%
same,activity at 10 µM,[1]; [4],87.6%
same,activity at 10 µM,[1]; [5],85.5%
same,activity at 100 µM,[1]; [2],52.6%
same,activity at 100 µM,[1]; [3],14.8%
same,activity at 100 µM,[1]; [4],9.99%
same,activity at 100 µM,[1]; [5],11.5%
same,minimal effective concentration,[1]; read-out: endo.mtl.18hr POD,17.7 µM
same,minimal effective concentration,[1]; read-out: endo.tlps.18hr POD,52.5 µM
same,minimal effective concentration,[1]; read-out: endo.tta.18hr POD,15.8 µM
same,minimal effective concentration,[1]; read-out: endo.ttl.18hr POD,16.1 µM
same,viability at 0.01 µM,HUVECs; [6],113%
same,activity at 0.01 µM,HUVECs; [7],112%
same,activity at 0.01 µM,HUVECs; [8],86.8%
same,activity at 0.01 µM,HUVECs; [9],95.3%
same,viability at 0.1 µM,HUVECs; [6],87.7%
same,activity at 0.1 µM,HUVECs; [7],86.9%
same,activity at 0.1 µM,HUVECs; [8],109%
same,activity at 0.1 µM,HUVECs; [9],105%
same,viability at 1 µM,HUVECs; [6],97%
same,activity at 1 µM,HUVECs; [7],96.1%
same,activity at 1 µM,HUVECs; [8],101%
same,activity at 1 µM,HUVECs; [9],97.1%
same,viability at 10 µM,HUVECs; [6],43.8%
same,activity at 10 µM,HUVECs; [7],26.1%
same,activity at 10 µM,HUVECs; [8],10.9%
same,activity at 10 µM,HUVECs; [9],69.2%
same,viability at 100 µM,HUVECs; [6],34.6%
same,activity at 100 µM,HUVECs; [7],0.26%
same,activity at 100 µM,HUVECs; [8],2.7%
same,activity at 100 µM,HUVECs; [9],73.6%
same,minimal effective concentration,"HUVECs; 24 hr, read-out: huvec.cyto.24hr POD",1.37 µM
same,minimal effective concentration,"HUVECs; 24 hr, read-out: huvec.mito.24hr POD",1.2 µM
same,minimal effective concentration,"HUVECs; 24 hr, read-out: huvec.mitoint.24hr POD",5.43 µM
same,minimal effective concentration,"HUVECs; 24 hr, read-out: huvec.nma.24hr POD",0.99 µM
same,viability at 0.01 µM,HUVECs; [10],113%
same,viability at 0.1 µM,HUVECs; [10],87.7%
same,viability at 1 µM,HUVECs; [10],97%
same,viability at 10 µM,HUVECs; [10],44.1%
same,viability at 100 µM,HUVECs; [10],36.5%
same,minimal effective concentration,"HUVECs; 24 hrs, read-out: huvec.tc.24hrs POD",1.37 µM
